We go through one molecule from patent publication US20260232644A1, “Compositions Comprising an Inhibitor of Galectin-3” (University of Liverpool, priority 2023, published 2026).

Where a name gives a salt, the structure may show the parent alone.

Series [1] concerns human melanoma ACA19 cells. The experiment in a line: Galectin-3-mediated ACA19 cell adhesion to HUVECs. The format is cell-based. The note with it: Galectin-3 2 μg/ml, various concentrations. As to the method:
HUVEC cells at 1×10^5 cells/ml in EGM medium were seeded into 24 well plates pre-inserted with 13 mm glass coverslip. The cells were incubated at 37° C. at 5% CO2 for 24 hr for monolayer formation. AGA19+ or SW620 cell suspension (5×10^5 cells/ml in DMEM) was introduced with 5 μl/ml fluorescent cell labelling solution DiL for 30 min at 37° C. The fluorescent labelled cells were washed twice with PBS and resuspended into 1×10^5 cells/ml in DMEM. The cancer cell suspension was then introduced with galectin-3 (2 μg/ml) and various concentrations of the compound inhibitors at 37° C. for 1 hr. The wells were carefully washed twice with PBS to remove the non-adhesion cells before the cells in the wells were fixed with 2% paraformaldehyde for 10 min. The glass coverslip was carefully removed from the plate, placed on a glass slide. After addition of fluorescence mounting medium containing DAPI, fluorescence labelled cells were quantified under a fluorescence microscope.

The subject of series [2] is yeast. Nature of the series: Genotoxicity in yeast.

With `NC1CCN(c2nc3c(cc2F)c(=O)c(C(=O)O)cn3-c2ccc(F)cc2F)C1` (centres unmarked) [Formula X, Tosufloxacin tosylate], the “Inhibition of ACA19 cell adhesion to HUVECs” value in series [1] was “dose-dependent inhibition”. The Genotoxicity in yeast result in series [2] is listed as “no detectable genotoxicity”.
